# Laboratory results reported in patent publication US20130072472A1, “N[…] ANSOLVATES” (DemeRx, Inc., priority 2011, published 2013).
# Structures can show the parent of a compound that is named as a salt.
# Legend:
# Format in all cases: physicochemical
# [1] = Thermogravimetric analysis (TGA); settings: for TGA sharp weight loss / onset of probable decomposition: TGA thermogram
# Protocol: Thermogravimetric analyses were performed using a TA Instruments Q5000 IR thermogravimetric analyzer. Temperature calibration was performed using nickel and Alumel™ Each sample was placed in an aluminum pan. The sample was hermetically sealed, the lid pierced, then inserted into the TO furnace. The furnace was heated under nitrogen.
# [2] = Drying of solvated forms, gravimetric weight loss and XRPD; settings: for gravimetric weight loss: hydrochloride
# Protocol: Two other moisture absorbing, unstable, polymorphs of noribogaine hydrochloride, Forms F and G, which had mutually similar XRPD patterns were also identified. Form G was isolated from a slurry of Form A in MeOH at ambient temperature. Material G likely contains MeOH and water, and Form F (or Form II) is likely hydrated. […] A sharp weight loss at ˜312° C. indicated likely decomposition. Both Forms G and F are contemplated to readily pick up moisture from the atmosphere.
# [3] = Polymorphic conversion of solvated form on stirring in EtOH/water or heating
# Excerpt: Such a desolvation is surprising, given that it occurs upon stirring in another solvent, which comprises hydroxy groups and alkyl moieties as in MeOH. As described above, form F is a solvated polymorph that is obtained from MeOH.
# [4] = Approximate aqueous solubility of noribogaine salt forms; settings: water
# [5] = Approximate ambient-temperature solubility, solvent addition method; settings: thermodynamic from solid
# Protocol: The approximate ambient-temperature solubilities of noribogaine hydrochloride Form A were measured in a variety of solvents and solvent mixtures using the solvent addition method (Table 2).
# The solubility of noribogaine hydrochloride ansolvate were determined as tabulated below.
# [6] = Dynamic vapor sorption (DVS); settings: for State of the solids after DVS sorption/desorption: post-DVS, 5 to 95 to 5% RH
# Protocol: Dynamic vapor sorption (DVS) data were collected on a VTI SOA-100 Vapor Sorption Analyzer. NaCl and PVP were used as calibration standards. Samples were not dried prior to analysis. Sorption and desorption data were collected over a range from 5 to 95% RH at 10% RH increments under a nitrogen purge. The equilibrium criterion used for analysis was less than 0.0100% weight change in 5 minutes with a maximum equilibration time of 3 hours. Data were not corrected for the initial moisture content of the samples.
compound,measurement,setting,value
"CC[C@H]1CC2C[C@H]3c4[nH]c5ccc(O)cc5c4CCN(C2)C13 [Form F, noribogaine hydrochloride]",TGA sharp weight loss / onset of probable decomposition,[1]; hydrochloride,~312 °C
same,gravimetric weight loss,[2],4.1%
same,Polymorphic form change upon heating,[3]; heating,converts to the ansolvate form A
same,Polymorphic form change upon stirring,[3]; stirring in 9:1 ethyl alcohol and water,converted to the ansolvate form A
"CC[C@H]1CC2C[C@H]3c4[nH]c5ccc(O)cc5c4CCN(C2)C13 [Form G, noribogaine hydrochloride]","Polymorphic form after weight loss, by XRPD",[2],converted to Form A
same,gravimetric weight loss,[2]; listed as material G,7.95%
"CC[C@H]1CC2C[C@H]3c4[nH]c5ccc(O)cc5c4CCN(C2)C13 [HCl, Form A, noribogaine hydrochloride]",Approx. Aqueous Solubility,[4]; hydrochloride,1000 to 4000 µg/mL
same,solubility,"[5]; aqueous with cosolvent or surfactant or cyclodextrin, ACN:water 80:20, ambient temperature",9000 µg/mL
same,solubility,"[5]; aqueous with cosolvent or surfactant or cyclodextrin, Acetone:water 50:50, ambient temperature",11000 µg/mL
same,solubility,"[5]; aqueous with cosolvent or surfactant or cyclodextrin, TFE:water 50:50, ambient temperature",10000 µg/mL
same,solubility,"[5]; organic solvent or mixture, Acetone, ambient temperature",< 1000 µg/mL
same,solubility,"[5]; organic solvent or mixture, CAN, ambient temperature",< 1000 µg/mL
same,solubility,"[5]; organic solvent or mixture, EtOAc, ambient temperature",< 1000 µg/mL
same,solubility,"[5]; organic solvent or mixture, EtOH, ambient temperature",< 1000 µg/mL
same,solubility,"[5]; organic solvent or mixture, HFIPA, ambient temperature",10000 µg/mL
same,solubility,"[5]; organic solvent or mixture, MeOH, ambient temperature",2000 µg/mL
same,solubility,"[5]; organic solvent or mixture, MeOH:THF 50:50, ambient temperature",1000 µg/mL
same,solubility,"[5]; organic solvent or mixture, TFE, ambient temperature",4000 µg/mL
same,solubility,"[5]; organic solvent or mixture, THF, ambient temperature",< 1000 µg/mL
same,solubility,"[5]; organic solvent or mixture, chloroform, ambient temperature",< 1000 µg/mL
same,solubility,"[5]; organic solvent or mixture, chloroform:EtOH 50:50, ambient temperature",< 1000 µg/mL
same,solubility,"[5]; organic solvent or mixture, p-dioxane, ambient temperature",< 1000 µg/mL
same,solubility,"[5]; Water, added all at once, stirred ~24 hours",< 4000 µg/mL
same,DVS weight gain/loss,[6]; between 5 and 95% relative humidity,approximately 0.03%
same,TGA sharp weight loss / onset of probable decomposition,"[1]; listed as Form A, hydrochloride",~316 °C
same,TGA weight loss,[1]; prior to ~316° C.,negligible weight loss
"CC[C@H]1CC2C[C@H]3c4[nH]c5ccc(O)cc5c4CCN(C2)C13 [Phosphate, Form C, noribogaine phosphate]",Approx. Aqueous Solubility,[4],23000 µg/mL
same,DVS weight gain,[6]; between 5 and 95% RH,approximately 3.3 wt %
same,DVS weight loss upon equilibration,[6]; equilibration to 5% RH,approximately 1 wt %
same,State of the solids after DVS sorption/desorption,[6],remained Form C
same,TGA sharp weight loss / onset of probable decomposition,[1],241 °C
same,TGA weight loss,[1]; from 30 to 140° C.,approximately 1.6%
"CC[C@H]1CC2C[C@H]3c4[nH]c5ccc(O)cc5c4CCN(C2)C13 [Sulfate, Form D, noribogaine sulfate ansolvate]",Approx. Aqueous Solubility,[4],>80000 µg/mL
same,DVS weight gain,[6]; between 75 and 95% RH,approximately 26 wt %
same,State of the solids after DVS sorption/desorption,[6]; listed as sulfate salt,deliquesced
same,DVS weight gain,[6]; up to 75% RH,about 0.7 wt %
same,TGA sharp weight loss / onset of probable decomposition,[1],approximately 274 °C
same,TGA weight loss,[1]; from approximately 160 to 245° C.,4.9 wt %
"CC[C@H]1CC2C[C@H]3c4[nH]c5ccc(O)cc5c4CCN(C2)C13 [Tosylate, Form B, tosylate salt of noribogaine]",Approx. Aqueous Solubility,[4],3000 µg/mL
